Earlier results on 2 compounds are cited in paper PMC7791840, “The R-enantiomer of ketorolac reduces ovarian cancer tumor burden in vivo” (BMC Cancer, 2021).

The structures appear in SMILES notation.

For one data set, the system named is Cdc42. Details: method as in earlier work. As to conditions: cell-based assays, ovarian tumor cells; ref 23 (R-ketorolac), 27 (S-ketorolac); cited from earlier work.
A further data set relates to COX-1. Details: method as in PMID 26558612, PMID 10027870. As to conditions: cited from earlier work.
For a further data set, the system named is Rac1. Details: method as in earlier work. As to conditions: cell-based assays, ovarian tumor cells; ref 23 (R-ketorolac), 27 (S-ketorolac); cited from earlier work.
On the set-up of data set [1]: method as in PMID 8809637. As to conditions: mice; cited from earlier work.
A further data set has as its system COX-2. Details: method as in PMID 26558612, PMID 10027870. Particulars: cited from earlier work.
The test system of data set [2] is HEY8 ovarian cancer xenografts. Set-up: method as in PMID 25595279. Particulars: cited from earlier work.

Regarding `O=C(c1ccccc1)c1ccc2n1CC[C@@H]2C(=O)O` [S-ketorolac], the IC50 in the data set on Cdc42 is > 100 µM; with COX-1, 0.46 µM; with Rac1, > 100 µM; with COX-2, 1.46 µM. In data set [1], the “Conversion of S-enantiomer to R-enantiomer” value was “significantly converted to the R-enantiomer in mice”.

On to `O=P(O)(O)C(O)(Cn1ccnc1)P(=O)(O)O` [zoledronic acid, Zoledronic acid], for which, in data set [2], the “Number of tumor nodules” value is given as “decreased” and the Tumor weight result is recorded as “decreased”.
